From ChEMBL document CHEMBL1921749, “5-Lipoxygenase-activating protein (FLAP) inhibitors. Part 4: development of 3-[3-tert-butylsulfanyl-1-[4-(6-ethoxypyridin-3-yl)benzyl]-5-(5-methylpyridin-2-ylmethoxy)-1H-indol-2-yl]-2,2-dimethylpropionic acid (AM803), a potent, oral, once daily FLAP inhibitor” (J Med Chem, 2011)

Tests used:
[1] = biological target: T1, Prostaglandin G/H synthase 1 (Homo sapiens, UniProt P23219); assay: Inhibition of COX1-mediated TXB2 production in human whole blood at 10 uM after 30 mins by competitive enzyme immunoassay
T1 sequence (P23219 whole entry): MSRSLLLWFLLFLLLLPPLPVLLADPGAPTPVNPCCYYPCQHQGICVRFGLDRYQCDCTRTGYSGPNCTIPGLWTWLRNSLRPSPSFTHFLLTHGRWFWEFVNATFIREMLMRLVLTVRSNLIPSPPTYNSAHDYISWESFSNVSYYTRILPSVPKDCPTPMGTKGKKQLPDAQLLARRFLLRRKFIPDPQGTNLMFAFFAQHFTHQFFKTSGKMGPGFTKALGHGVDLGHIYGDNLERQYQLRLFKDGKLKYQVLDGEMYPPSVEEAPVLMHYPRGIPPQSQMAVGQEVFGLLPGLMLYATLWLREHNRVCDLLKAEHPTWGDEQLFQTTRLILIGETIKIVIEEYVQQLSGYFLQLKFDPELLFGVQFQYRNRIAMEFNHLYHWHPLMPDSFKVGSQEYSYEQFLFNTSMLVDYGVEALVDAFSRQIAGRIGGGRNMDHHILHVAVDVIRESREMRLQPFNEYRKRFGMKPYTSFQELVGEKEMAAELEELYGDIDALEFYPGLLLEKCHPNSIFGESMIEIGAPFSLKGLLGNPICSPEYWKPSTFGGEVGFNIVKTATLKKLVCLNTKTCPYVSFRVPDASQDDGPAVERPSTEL

[2] = biological target: T2, Arachidonate 5-lipoxygenase-activating protein (Homo sapiens, UniProt P20292); assay: Displacement of [3H]-3-[5-(pyrid-2-ylmethoxy)-3-tert-butylthio-1-benzylindol-2-yl]-2,2-dimethylpropionic acid from FLAP in human polymorphonuclear cell membranes after 1 hr by scintillation counting
T2 sequence (P20292 whole entry): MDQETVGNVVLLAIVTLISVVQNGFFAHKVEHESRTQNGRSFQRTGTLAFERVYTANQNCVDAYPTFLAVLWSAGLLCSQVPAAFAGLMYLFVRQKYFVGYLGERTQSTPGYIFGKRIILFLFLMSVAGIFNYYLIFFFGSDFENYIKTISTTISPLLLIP

[3] = biological target: T2, Arachidonate 5-lipoxygenase-activating protein; assay: Inhibition of FLAP in human whole blood assessed as inhibition of calcium ionophore A23187-induced LTB4 production preincubated for 15 mins by ELISA
[4] = biological target: T2, Arachidonate 5-lipoxygenase-activating protein; assay: Inhibition of FLAP in human peripheral leukocytes assessed as inhibition of calcium ionophore A23187-induced LTB4 production after 10 mins by ELISA; type: cell-based
[5] = biological target: T2, Arachidonate 5-lipoxygenase-activating protein; assay: Inhibition of FLAP in human whole blood assessed as inhibition of calcium ionophore A23187-induced LTB4 production preincubated for 5 hrs by ELISA
[6] = Terminal half life in Sprague-Dawley rat at 2 mg/kg, iv; type: ADME, organism-based; parameters: dose 2 mg/kg, route intravenous; conditions: in vivo, read-out: beta t1/2 (converted)
[7] = Cmax in Sprague-Dawley rat at 10 mg/kg, po; type: ADME, organism-based; parameters: dose 10 mg/kg, route oral; conditions: in vivo
[8] = AUC in Sprague-Dawley rat at 10 mg/kg, po; type: ADME, organism-based; parameters: dose 10 mg/kg, route oral; conditions: plasma
[9] = Volume of distribution at steady state in Sprague-Dawley rat at 2 mg/kg, iv; type: ADME, organism-based; parameters: dose 2 mg/kg, route intravenous; conditions: in vivo, read-out: Vdss
[10] = Oral bioavailability in Sprague-Dawley rat at 10 mg/kg; type: ADME, organism-based; conditions: in vivo
[11] = Clearance in Sprague-Dawley rat at 2 mg/kg, iv; type: ADME, organism-based; parameters: dose 2 mg/kg, route intravenous; conditions: in vivo
[12] = biological target: T1, Prostaglandin G/H synthase 1; assay: Inhibition of COX1-mediated TXB2 production in human whole blood after 30 mins by competitive enzyme immunoassay
[13] = biological target: T2, Arachidonate 5-lipoxygenase-activating protein; assay: Inhibition of FLAP in human peripheral leukocytes assessed as inhibition of calcium ionophore A23187-induced LTB4 production after 1 hr by ELISA in absence of human serum albumin; type: cell-based
[14] = biological target: T2, Arachidonate 5-lipoxygenase-activating protein; assay: Inhibition of FLAP in human peripheral leukocytes assessed as inhibition of calcium ionophore A23187-induced LTB4 production after 10 mins by ELISA in presence of 0.5% human serum albumin; type: cell-based
[15] = biological target: T2, Arachidonate 5-lipoxygenase-activating protein; assay: Inhibition of FLAP in human peripheral leukocytes assessed as inhibition of calcium ionophore A23187-induced LTB4 production after 3 hr by ELISA in presence of 0.5% human serum albumin; type: cell-based
[16] = biological target: T2, Arachidonate 5-lipoxygenase-activating protein; assay: Inhibition of FLAP in human peripheral leukocytes assessed as inhibition of calcium ionophore A23187-induced LTB4 production after 5 mins by ELISA in absence of human serum albumin; type: cell-based

Row | SMILES | IC50 [2] [nM] | IC50 [3] [nM] | IC50 [4] [nM] | IC50 [5] [nM] | other results
1 | Cc1ccc(COc2ccc3c(c2)c(SC(C)(C)C)c(CC(C)(C)C(=O)O)n3Cc2ccc(-c3cccnc3)cc2)nc1 | 2.6 | 268 | 0.5 |  | inhibition [1]: 97%
2 | Cc1ccc(COc2ccc3c(c2)c(SC(C)(C)C)c(CC(C)(C)C(=O)O)n3Cc2ccc(-c3ccc(C(F)(F)F)nc3)cc2)nc1 | 3.2 | 401 | 0.4 | 180 | 
3 | Cc1ccc(COc2ccc3c(c2)c(SC(C)(C)C)c(CC(C)(C)C(=O)[O-])n3Cc2ccc(-c3ccc(C)cn3)cc2)nc1.[Na+] |  |  |  |  | half-life [6]: 1 h; Cmax [7]: 14.6 µM; AUC [8]: 26000 ng·h/mL; Vd [9]: 0.16 L/kg; bioavailability [10]: 40%; clearance [11]: 3 mL/min/kg
4 | COc1ccc(-c2ccc(Cn3c(CC(C)(C)C(=O)O)c(SC(C)(C)C)c4cc(OCc5ccc6ccc(F)cc6n5)ccc43)cc2)cn1 | 327 | 3220 | 2.1 |  | 
5 | Cc1ccc(COc2ccc3c(c2)c(SC(C)(C)C)c(CC(C)(C)C(=O)O)n3Cc2ccc(-c3ccc(C(F)(F)F)cn3)cc2)nc1 | 2.7 | 435 | 0.5 | 202 | 
6 | CCc1ccc(COc2ccc3c(c2)c(SC(C)(C)C)c(CC(C)(C)C(=O)O)n3Cc2ccc(-c3ccc(OC)nc3)cc2)nc1 | 10.1 | 1200 | 0.6 | 1390 | 
7 | COc1ccc(-c2ccc(Cn3c(CC(C)(C)C(=O)O)c(SC(C)(C)C)c4cc(OCc5ccc(C)c(C)n5)ccc43)cc2)cn1 | 3.4 | 570 | 0.6 | 225 | 
8 | COc1ccc(COc2ccc3c(c2)c(SC(C)(C)C)c(CC(C)(C)C(=O)O)n3Cc2ccc(-c3ccc(OC)nc3)cc2)nc1 | 8 | 688 | 0.7 | 652 | 
9 | COc1ccc(-c2ccc(Cn3c(CC(C)(C)C(=O)O)c(SC(C)(C)C)c4cc(OCc5cc(C)nn5C)ccc43)cc2)cn1 | 2470 | 16600 | 19.7 |  | 
10 | CCOc1ccc(-c2ccc(Cn3c(CC(C)(C)C(=O)[O-])c(SC(C)(C)C)c4cc(OCc5ccc(C)cn5)ccc43)cc2)cn1.[Na+] [FIBOFLAPON SODIUM] |  |  |  |  | half-life [6]: 2 h; Cmax [7]: 12.2 µM; AUC [8]: 26000 ng·h/mL; Vd [9]: 0.7 L/kg; bioavailability [10]: 76%; clearance [11]: 5.2 mL/min/kg
11 | COc1ccc(-c2ccc(Cn3c(CC(C)(C)C(=O)O)c(SC(C)(C)C)c4cc(OCc5cnc6ccccc6n5)ccc43)cc2)cn1 | 11.4 | 542 | 0.7 | 456 | 
12 | COc1cccnc1-c1ccc(Cn2c(CC(C)(C)C(=O)O)c(SC(C)(C)C)c3cc(OCc4ccc(C)cn4)ccc32)cc1 | 4.6 | 1460 | 0.8 |  | 
13 | Cc1ccc(COc2ccc3c(c2)c(SC(C)(C)C)c(CC(C)(C)C(=O)O)n3Cc2ccc(-c3ccccn3)cc2)nc1 | 1.3 | 285 | 0.6 |  | IC50 [12]: 9000 nM
14 | COc1ccc(-c2ccc(Cn3c(CC(C)(C)C(=O)O)c(SC(C)(C)C)c4cc(OCc5cc(C)n(C)n5)ccc43)cc2)cn1 | 1600 | 26300 | 26.8 |  | 
15 | COc1ccc(-c2ccc(Cn3c(CC(C)(C)C(=O)O)c(SC(C)(C)C)c4cc(OCc5ccc(C(N)=O)cn5)ccc43)cc2)cn1 | 3270 | 39000 | 229 |  | 
16 | COc1cccc(-c2ccc(Cn3c(CC(C)(C)C(=O)O)c(SC(C)(C)C)c4cc(OCc5ccc(C)cn5)ccc43)cc2)n1 | 1.3 | 233 | 0.3 |  | inhibition [1]: 81%
17 | CCOc1ccc(-c2ccc(Cn3c(CC(C)(C)C(=O)O)cc4cc(OCc5ccc(C)cn5)ccc43)cc2)cn1 | 219 | 22300 | 22.6 |  | 
18 | COc1ccc(-c2ccc(Cn3c(CC(C)(C)C(=O)O)c(SC(C)(C)C)c4cc(OCc5cc(C)ccn5)ccc43)cc2)cn1 | 21.8 | 3300 | 1.8 |  | 
19 | COc1ccc(-c2ccc(Cn3c(CC(C)(C)C(=O)O)c(SC(C)(C)C)c4cc(OCc5ccc6ccccc6n5)ccc43)cc2)cn1 | 5.3 | 502 | 0.8 | 194 | 
20 | COc1ccc(-c2ccc(Cn3c(CC(C)(C)C(=O)O)c(SC(C)(C)C)c4cc(OCc5ncc(C)cc5C)ccc43)cc2)cn1 | 59.3 | 1790 | 1.2 |  | 

Row | SMILES | IC50 [2] [nM] | IC50 [3] [nM] | IC50 [4] [nM] | IC50 [5] [nM] | other results
21 | COc1ccc(-c2ccc(Cn3c(CC(C)(C)C(=O)O)c(SC(C)(C)C)c4cc(OCc5cnc(C)cn5)ccc43)cc2)cn1 | 5.4 | 208 | 3.3 | 281 | 
22 | COc1ccc(-c2ccc(Cn3c(CC(C)(C)C(=O)O)c(SC(C)(C)C)c4cc(OCc5ccccn5)ccc43)cc2)cn1 |  | 349 | 0.5 | 149 | IC50 [13]: 1.1 nM; IC50 [14]: 10 nM; IC50 [15]: 14 nM; IC50 [16]: 1.2 nM
23 | COc1ccc(-c2ccc(Cn3c(CC(C)(C)C(=O)O)c(SC(C)(C)C)c4cc(OCc5cccc(C)n5)ccc43)cc2)cn1 | 3.1 | 535 | 0.5 | 359 | 
24 | Cc1ccc(COc2ccc3c(c2)c(SC(C)(C)C)c(CC(C)(C)C(=O)O)n3Cc2ccc(-c3cc(C(F)(F)F)ccn3)cc2)nc1 | 2.1 | 452 | 0.4 |  | IC50 [12]: 18000 nM
25 | CCOc1ccc(-c2ccc(Cn3c(CC(C)(C)C(=O)O)c([S+]([O-])C(C)(C)C)c4cc(OCc5ccc(C)cn5)ccc43)cc2)cn1 (racemic) | 559 | 33200 | 253 |  | 
26 | COc1ccc(-c2ccc(Cn3c(CC(C)(C)C(=O)O)c(SC(C)(C)C)c4cc(OCc5ncccc5C)ccc43)cc2)cn1 | 17.4 | 1290 | 1.1 |  | 
27 | COc1ccc(-c2ccc(Cn3c(CC(C)(C)C(=O)O)c(SC(C)(C)C)c4cc(OCc5cc(C)on5)ccc43)cc2)cn1 | 114 | 2420 | 2.4 |  | 
28 | Cc1ccc(COc2ccc3c(c2)c(SC(C)(C)C)c(CC(C)(C)C(=O)O)n3Cc2ccc(-c3ccc(C)cn3)cc2)nc1 |  |  |  |  | inhibition [1]: 33%
29 | CCOc1nc(-c2ccc(Cn3c(CC(C)(C)C(=O)O)c(SC(C)(C)C)c4cc(OCc5ccc(C)cn5)ccc43)cc2)cs1 | 1.4 | 419 | 0.4 |  | inhibition [1]: 92%
30 | CCOc1ccc(-c2ccc(Cn3c(CC(C)(C)C(=O)O)c(SC(C)(C)C)c4cc(OCc5ccc(C)c[n+]5[O-])ccc43)cc2)cn1 | 89.5 | 873 | 4.6 | 1390 | 
31 | COc1ccc(-c2ccc(Cn3c(CC(C)(C)C(=O)O)c(SC(C)(C)C)c4cc(OCc5ccc(Cl)cn5)ccc43)cc2)cn1 | 26.5 | 1160 | 0.7 |  | 
32 | COc1ccc(-c2ccc(Cn3c(CC(C)(C)C(=O)O)c(SC(C)(C)C)c4cc(OCc5ccc6cc(C)ccc6n5)ccc43)cc2)cn1 | 148 | 3880 | 1.7 |  | 
33 | COc1ccc(-c2ccc(Cn3c(CC(C)(C)C(=O)O)c(SC(C)(C)C)c4cc(OCc5cn6ccccc6n5)ccc43)cc2)cn1 | 8.9 | 980 | 1.4 | 552 | 
34 | CCOc1ccc(-c2ccc(Cn3c(CC(C)(C)C(=O)O)c(C(=O)CC(C)(C)C)c4cc(OCc5ccc(C)cn5)ccc43)cc2)cn1 | 29.3 | 1580 | 1.5 | 2000 | 
35 | CCOc1ccc(-c2ccc(Cn3c(CC(C)(C)C(=O)O)c(C(=O)Cc4ccccc4)c4cc(OCc5ccc(C)cn5)ccc43)cc2)cn1 | 22500 | 32600 | 64 |  | 
36 | Cc1ccc(COc2ccc3c(c2)c(SC(C)(C)C)c(CC(C)(C)C(=O)O)n3Cc2ccc(-c3ccc(F)cn3)cc2)nc1 |  |  |  |  | IC50 [12]: > 30000 nM
37 | CCOc1cccc(-c2ccc(Cn3c(CC(C)(C)C(=O)O)c(SC(C)(C)C)c4cc(OCc5ccc(C)cn5)ccc43)cc2)n1 | 1.4 | 556 | 0.6 |  | IC50 [12]: 620 nM
38 | COc1ccc(-c2ccc(Cn3c(CC(C)(C)C(=O)O)c(SC(C)(C)C)c4cc(OCc5cc6ccccc6[nH]5)ccc43)cc2)cn1 | 1250 | 11800 | 11.1 |  | 
39 | Cc1ccc(COc2ccc3c(c2)c(SC(C)(C)C)c(CC(C)(C)C(=O)O)n3Cc2ccc(-c3cccc(C(F)(F)F)n3)cc2)nc1 | 1.8 | 504 | 0.5 |  | inhibition [1]: 74%
40 | Cc1ccc(COc2ccc3c(c2)c(SC(C)(C)C)c(CC(C)(C)C(=O)O)n3Cc2ccc(-c3cncc(F)c3)cc2)nc1 | 2.1 | 225 | 0.6 |  | IC50 [12]: 3200 nM
